# Source: PubChem BioAssay AID1745844 (Carcinogenic Potency Database (CPDB), 2022)
# Calls of active or inactive are those of the source. No rule for the calls is given here.
# Test system: rodent lifetime carcinogenesis bioassay, tumor incidence TD50
# Experiment: chronic cancer bioassays in animals – CPDB, compiled studies (AID 1745844)
# [1] = mouse, strain B6C3F1, females, in feed, site: liver, lesion: hepatocellular adenoma, dosed 78 weeks, study length 78 weeks
structure (smiles),measurement,setting,value
C=C1C/C(=C/C)C(=O)O[C@@H]2CCN3CC=C(COC(=O)[C@@]1(O)CO)[C@H]23,TD50,"mouse, strain B6C3F1, females, by gavage, site: all sites, lesion: hemangioma + hemangiosarcoma, dosed 105 weeks, study length 105 weeks",10 mg/kg/day
same,TD50,"mouse, strain B6C3F1, females, by gavage, site: any site (literature study), lesion: several types, types named in the paper, dosed 105 weeks, study length 105 weeks",0.691 mg/kg/day
same,TD50,"mouse, strain B6C3F1, females, by gavage, site: lung, lesion: alveolar/bronchiolar adenoma + alveolar/bronchiolar carcinoma, dosed 105 weeks, study length 105 weeks",1.99 mg/kg/day
same,TD50,"mouse, strain B6C3F1, females, by gavage, site: lung, lesion: alveolar/bronchiolar adenoma, dosed 105 weeks, study length 105 weeks",2.68 mg/kg/day
same,TD50,"mouse, strain B6C3F1, males, by gavage, site: all sites, lesion: hemangiosarcoma, dosed 104 weeks, study length 104 weeks",1.63 mg/kg/day
same,TD50,"mouse, strain B6C3F1, males, by gavage, site: any site (literature study), lesion: several types, types named in the paper, dosed 104 weeks, study length 104 weeks",1.09 mg/kg/day
same,TD50,"mouse, strain B6C3F1, males, by gavage, site: liver, lesion: hemangiosarcoma, dosed 104 weeks, study length 104 weeks",1.96 mg/kg/day
same,TD50,"mouse, strain B6C3F1, males, by gavage, site: lung, lesion: alveolar/bronchiolar adenoma + alveolar/bronchiolar carcinoma, dosed 104 weeks, study length 104 weeks",5.57 mg/kg/day
same,TD50,"rat, strain Fischer 344, females, by gavage, site: all sites + liver, lesion: mononuclear-cell leukemia + hemangiosarcoma + hepatocellular adenoma, dosed 102 weeks, study length 104 weeks",0.143 mg/kg/day
same,TD50,"rat, strain Fischer 344, females, by gavage, site: all sites + liver, lesion: mononuclear-cell leukemia + hepatocellular adenoma, dosed 102 weeks, study length 104 weeks",0.234 mg/kg/day
same,TD50,"rat, strain Fischer 344, females, by gavage, site: all sites, lesion: hemangiosarcoma, dosed 102 weeks, study length 104 weeks",0.446 mg/kg/day
same,TD50,"rat, strain Fischer 344, females, by gavage, site: all sites, lesion: mononuclear-cell leukemia, dosed 102 weeks, study length 104 weeks",0.293 mg/kg/day
same,TD50,"rat, strain Fischer 344, females, by gavage, site: any site (literature study), lesion: several types, types named in the paper, dosed 102 weeks, study length 104 weeks",0.0706 mg/kg/day
same,TD50,"rat, strain Fischer 344, females, by gavage, site: liver, lesion: hemangiosarcoma, dosed 102 weeks, study length 104 weeks",0.457 mg/kg/day
same,TD50,"rat, strain Fischer 344, females, by gavage, site: liver, lesion: hepatocellular adenoma + hepatoblastoma + hepatocellular carcinoma, dosed 102 weeks, study length 104 weeks",1.2 mg/kg/day
same,TD50,"rat, strain Fischer 344, females, by gavage, site: liver, lesion: hepatocellular adenoma + hepatocellular carcinoma, dosed 102 weeks, study length 104 weeks",1.2 mg/kg/day
same,TD50,"rat, strain Fischer 344, females, by gavage, site: liver, lesion: hepatocellular adenoma, dosed 102 weeks, study length 104 weeks",1.63 mg/kg/day
same,TD50,"rat, strain Fischer 344, females, by gavage, site: thyroid gland, lesion: c-cell adenoma + c-cell adenoma, bilateral, dosed 102 weeks, study length 104 weeks",0.62 mg/kg/day
same,TD50,"rat, strain Fischer 344, males, by gavage, site: all sites + liver, lesion: mononuclear-cell leukemia + hemangiosarcoma + hepatocellular adenoma, dosed 71 weeks, study length 71 weeks",0.0665 mg/kg/day
same,TD50,"rat, strain Fischer 344, males, by gavage, site: all sites + liver, lesion: mononuclear-cell leukemia + hepatocellular adenoma, dosed 71 weeks, study length 71 weeks",0.179 mg/kg/day
same,TD50,"rat, strain Fischer 344, males, by gavage, site: all sites, lesion: mononuclear-cell leukemia, dosed 71 weeks, study length 71 weeks",0.232 mg/kg/day
same,TD50,"rat, strain Fischer 344, males, by gavage, site: any site (literature study), lesion: several types, types named in the paper, dosed 71 weeks, study length 71 weeks",0.0267 mg/kg/day
same,TD50,"rat, strain Fischer 344, males, by gavage, site: liver, lesion: hemangiosarcoma, dosed 71 weeks, study length 71 weeks",0.0744 mg/kg/day
same,TD50,"rat, strain Fischer 344, males, by gavage, site: liver, lesion: hepatocellular adenoma + hepatoblastoma + hepatocellular carcinoma, dosed 71 weeks, study length 71 weeks",0.584 mg/kg/day
same,TD50,"rat, strain Fischer 344, males, by gavage, site: liver, lesion: hepatocellular adenoma, dosed 71 weeks, study length 71 weeks",0.584 mg/kg/day
same,TD50,"rat, strain Fischer 344, males, by gavage, site: lung, lesion: alveolar/bronchiolar adenoma, dosed 71 weeks, study length 71 weeks",0.528 mg/kg/day
Cc1cc(C)nc(NS(=O)(=O)c2ccc(N)cc2)n1,TD50,[1],2820 mg/kg/day
same,TD50,"mouse, strain B6C3F1, females, in feed, site: liver, lesion: hepatocellular adenoma, dosed 104 weeks, study length 104 weeks",12300 mg/kg/day
same,TD50,"mouse, strain B6C3F1, females, in feed, site: liver, lesion: hepatocellular carcinoma, dosed 104 weeks, study length 104 weeks",16500 mg/kg/day
same,TD50,"mouse, strain B6C3F1, females, in feed, site: liver, lesion: several types, types named in the paper, dosed 104 weeks, study length 104 weeks",8740 mg/kg/day
same,TD50,"mouse, strain B6C3F1, females, in feed, site: lung, lesion: alveolar/bronchiolar carcinoma, dosed 52 weeks, study length 52 weeks",3100 mg/kg/day
same,TD50,"mouse, strain B6C3F1, females, in feed, site: lung, lesion: alveolar/bronchiolar carcinoma, dosed 104 weeks, study length 104 weeks",12700 mg/kg/day
same,TD50,"mouse, strain B6C3F1, females, in feed, site: thyroid gland, lesion: follicular-cell adenoma, dosed 78 weeks, study length 78 weeks",618 mg/kg/day
same,TD50,"mouse, strain B6C3F1, females, in feed, site: thyroid gland, lesion: follicular-cell adenoma, dosed 104 weeks, study length 104 weeks",2160 mg/kg/day
same,TD50,"mouse, strain B6C3F1, females, in feed, site: thyroid gland, lesion: follicular-cell carcinoma, dosed 104 weeks, study length 104 weeks",54800 mg/kg/day
same,TD50,"mouse, strain B6C3F1, females, in feed, site: thyroid gland, lesion: several types, types named in the paper, dosed 104 weeks, study length 104 weeks",2060 mg/kg/day
same,TD50,"mouse, strain B6C3F1, males, in feed, site: liver, lesion: hepatocellular adenoma, dosed 104 weeks, study length 104 weeks",14900 mg/kg/day
same,TD50,"mouse, strain B6C3F1, males, in feed, site: liver, lesion: several types, types named in the paper, dosed 104 weeks, study length 104 weeks",11700 mg/kg/day
same,TD50,"mouse, strain B6C3F1, males, in feed, site: thyroid gland, lesion: follicular-cell adenoma, dosed 78 weeks, study length 78 weeks",3370 mg/kg/day
same,TD50,"mouse, strain B6C3F1, males, in feed, site: thyroid gland, lesion: follicular-cell adenoma, dosed 104 weeks, study length 104 weeks",1220 mg/kg/day
same,TD50,"mouse, strain B6C3F1, males, in feed, site: thyroid gland, lesion: follicular-cell carcinoma, dosed 104 weeks, study length 104 weeks",72100 mg/kg/day
same,TD50,"mouse, strain B6C3F1, males, in feed, site: thyroid gland, lesion: several types, types named in the paper, dosed 104 weeks, study length 104 weeks",1190 mg/kg/day
O=NN(CC(=O)O)CC(=O)O,TD50,"rat, strain MRC, females, in drinking water, site: any site (literature study), lesion: several types, types named in the paper, dosed 72 weeks, study length 104 weeks",63.9 mg/kg/day (inactive)
same,TD50,"rat, strain MRC, males, in drinking water, site: any site (literature study), lesion: several types, types named in the paper, dosed 72 weeks, study length 104 weeks",76 mg/kg/day (inactive)
same,TD50,"rat, strain MRC, males, in drinking water, site: pituitary gland, lesion: one or several types, types not named, dosed 72 weeks, study length 104 weeks",66.9 mg/kg/day (inactive)
CCCc1cc(=O)[nH]c(=S)[nH]1,TD50,"mouse, strain C57BL, both sexes, in feed, site: pituitary gland, lesion: adenoma, dosed 73 weeks, study length 73 weeks",409 mg/kg/day
same,TD50,"rat, strain Long-Evans, males, in feed, site: thyroid gland, lesion: adenoma, dosed 52 weeks, study length 52 weeks",10.3 mg/kg/day
same,TD50,"rat, strain Wistar albino, females, in drinking water, site: thyroid gland, lesion: adenoma, dosed 78 weeks, study length 78 weeks",15.8 mg/kg/day
same,TD50,"rat, strain Wistar albino, females, in drinking water, site: thyroid gland, lesion: carcinoma, dosed 78 weeks, study length 78 weeks",115 mg/kg/day
same,TD50,"rat, strain Wistar albino, males, in drinking water, site: thyroid gland, lesion: adenoma, dosed 78 weeks, study length 78 weeks",17.2 mg/kg/day
same,TD50,"rat, strain Wistar albino, males, in drinking water, site: thyroid gland, lesion: carcinoma, dosed 78 weeks, study length 78 weeks",79.3 mg/kg/day
same,carcinogen call,"rat, strain Wistar, males, in drinking water, site: thyroid gland, lesion: adenoma, dosed 26 weeks, study length 104 weeks",negative (inactive)
Cc1csc(NNC=O)n1,TD50,"rat, strain Sprague-Dawley, females, in feed, site: any site (literature study), lesion: several types, types named in the paper, dosed 46 weeks, study length 64 weeks",14.4 mg/kg/day
same,TD50,"rat, strain Sprague-Dawley, females, in feed, site: mammary gland, lesion: adenofibroma, dosed 46 weeks, study length 64 weeks",14.4 mg/kg/day
CN(C)c1ccc(C(=C2C=CC(=[N+](C)C)C=C2)c2ccc(N(C)C)cc2)cc1,TD50,"mouse, strain B6C3F1, females, in feed, site: Harderian gland, lesion: adenoma, dosed 107 weeks, study length 107 weeks",305 mg/kg/day
same,TD50,[1],115 mg/kg/day
same,TD50,"mouse, strain B6C3F1, females, in feed, site: liver, lesion: hepatocellular adenoma, dosed 107 weeks, study length 107 weeks",75.5 mg/kg/day
same,TD50,"mouse, strain B6C3F1, females, in feed, site: liver, lesion: hepatocellular carcinoma, dosed 78 weeks, study length 78 weeks",343 mg/kg/day
same,TD50,"mouse, strain B6C3F1, females, in feed, site: liver, lesion: hepatocellular carcinoma, dosed 107 weeks, study length 107 weeks",57.9 mg/kg/day
same,carcinogen call,"mouse, strain B6C3F1, females, in feed, site: liver, lesion: one or several types, types not named, dosed 52 weeks, study length 52 weeks",negative (inactive)
same,TD50,"mouse, strain B6C3F1, females, in feed, site: ovary, lesion: reticulum-cell sarcoma, type A, dosed 107 weeks, study length 107 weeks",912 mg/kg/day
same,TD50,"mouse, strain B6C3F1, females, in feed, site: urinary bladder, lesion: reticulum-cell sarcoma, type A, dosed 107 weeks, study length 107 weeks",834 mg/kg/day
same,TD50,"mouse, strain B6C3F1, females, in feed, site: uterus, lesion: reticulum-cell sarcoma, type A, dosed 107 weeks, study length 107 weeks",413 mg/kg/day
same,TD50,"mouse, strain B6C3F1, females, in feed, site: vagina, lesion: reticulum-cell sarcoma, type A, dosed 107 weeks, study length 107 weeks",668 mg/kg/day
same,TD50,"mouse, strain B6C3F1, males, in feed, site: Harderian gland, lesion: adenoma, dosed 107 weeks, study length 107 weeks",615 mg/kg/day
same,carcinogen call,"mouse, strain B6C3F1, males, in feed, site: liver, lesion: hepatocellular adenoma, dosed 52 weeks, study length 52 weeks",negative (inactive)
same,TD50,"mouse, strain B6C3F1, males, in feed, site: liver, lesion: hepatocellular adenoma, dosed 78 weeks, study length 78 weeks",636 mg/kg/day (inactive)
same,TD50,"mouse, strain B6C3F1, males, in feed, site: liver, lesion: hepatocellular adenoma, dosed 107 weeks, study length 107 weeks",139 mg/kg/day
same,carcinogen call,"mouse, strain B6C3F1, males, in feed, site: liver, lesion: hepatocellular carcinoma, dosed 78 weeks, study length 78 weeks",negative (inactive)
same,TD50,"mouse, strain B6C3F1, males, in feed, site: liver, lesion: hepatocellular carcinoma, dosed 107 weeks, study length 107 weeks",222 mg/kg/day
O=[N+]([O-])c1ccc2c(c1)Cc1ccccc1-2,TD50,"rat, strain Wistar, males, in feed, site: forestomach, lesion: several types, types named in the paper, dosed 47 weeks, study length 104 weeks",0.285 mg/kg/day
same,TD50,"rat, strain Wistar, males, in feed, site: forestomach, lesion: squamous-cell carcinoma, dosed 47 weeks, study length 104 weeks",1.12 mg/kg/day
same,TD50,"rat, strain Wistar, males, in feed, site: kidney, lesion: cortical carcinoma, dosed 47 weeks, study length 104 weeks",2.35 mg/kg/day
same,TD50,"rat, strain Wistar, males, in feed, site: kidney, lesion: several types, types named in the paper, dosed 47 weeks, study length 104 weeks",3 mg/kg/day
same,TD50,"rat, strain Wistar, males, in feed, site: liver, lesion: hepatocellular carcinoma, dosed 47 weeks, study length 104 weeks",2.1 mg/kg/day
C[C@]12C=CC(=O)C=C1CC[C@@H]1[C@@H]2[C@@H](O)C[C@@]2(C)[C@H]1CC[C@]2(O)C(=O)CO,TD50,"rat, strain Charles River CD (Sprague-Dawley), males, in drinking water, site: liver, lesion: hepatocellular adenoma, dosed 104 weeks, study length 104 weeks",2.16 mg/kg/day
same,TD50,"rat, strain Charles River CD (Sprague-Dawley), males, in drinking water, site: liver, lesion: hepatocellular carcinoma, dosed 104 weeks, study length 104 weeks",6.58 mg/kg/day
same,TD50,"rat, strain Charles River CD (Sprague-Dawley), males, in drinking water, site: liver, lesion: several types, types named in the paper, dosed 104 weeks, study length 104 weeks",1.53 mg/kg/day
same,TD50,"rat, strain Sprague-Dawley, females, by gavage, site: any site (literature study), lesion: benign tumor, dosed 78 weeks, study length 104 weeks",1.96 mg/kg/day (inactive)
same,carcinogen call,"rat, strain Sprague-Dawley, females, by gavage, site: any site (literature study), lesion: malignant tumor, dosed 78 weeks, study length 104 weeks",negative (inactive)
